Key:
HCoV-OC43 = HCoV-OC43 viral infectivity assay; format: cell-based; conditions: HCoV-OC43, HMC3 cells; combination with remdesivir; #79: 60 μM, #96: […] μM, #102: 25 μM
Method: HMC3 cells were seeded into black 96-well plates at 90% confluency. The next day, media was removed and replaced with complete media containing compounds/carrier 2 h prior to infection. After that, 5 μl of HCoV-OC43 virus was added to each well at an MOI of 0.005 for a final total volume of 100 μl/well. The plates were incubated at 33 °C. The viral suspension was removed after 12 h and drugs were added back to the cells to further incubate at 33 °C for 36 h. At 48 h post infection, cells were fixed with 4 % PFA in the media for 15 min. Residual PFA was quenched with a 50 mM NH4Cl and 100 mM NaCl solution. Cells were permeabilized and blocked in 5% FBS, 3% BSA, 0.05% Triton X-100 and 0.005% NaN3 in PBS for an hour. Anti-N antibody (Sigma 542-7D) was diluted in 4% FBS in PBS at 1:1000 dilution and was applied at 4 °C for 16 h. After several washing steps, cells were stained with AlexaFluor 594 and DAPI. For determination of cytotoxicity, HMC3 cells were seeded into opaque white wall 96-well plates. The following day, media was removed, replaced with media containing compounds/carrier and incubated for 48 h. After 48 h, cell viability was determined using alamarBlue™ Cell Viability Reagent using an Infinite 200 PRO microplate reader (Tecan).
Plates were scanned on a Citation 5 Imaging Multi-Mode Reader (BioTek). Gen5 software (version 3.10) was used for both image acquisition and analysis. A total number of 16 images/well were collected at 4x magnification to span the entire well. DAPI channel was used to build primary masks for the nucleus. Secondary masks were built within a 15 μm ring around the primary nuclear mask. Infection efficiencies were calculated from the ratio of the total fluorescence intensity within the secondary mask and the total area of the secondary mask for each well. Microscope images were prepared for publication using ImageJ (version 1.53i).

SARS-CoV-2 = SARS-CoV-2 viral infectivity assay; format: cell-based; conditions: A549+ACE2 cells; for direct antiviral effect on SARS-CoV-2 on their own: 72 h post infection, compound alone; for synergy with remdesivir, SARS-CoV-2: combination with remdesivir, #79: 60 μM, #96: […] μM, #102: 25 μM
[1] = clinical studies in Japan, gastric diseases; cited from earlier work

With `CC(C)=CCOc1ccc(/C=C/C(=O)c2ccc(OCC=C(C)C)cc2OCC(=O)O)cc1` [#102, Sofalcone, reference compound] the “lowering of the EC50 of remdesivir” value (HCoV-OC43) was ~ 5 fold, the “direct antiviral effect on SARS-CoV-2 on their own” value (“direct antiviral effect” for short) (SARS-CoV-2) was “no direct antiviral effect was detected” and the “synergy with remdesivir, SARS-CoV-2” value (SARS-CoV-2) was “synergized with remdesivir”. For the same compound, the tolerability in humans [1] was “well tolerated by humans”.
In the case of `CC(C)=CCc1c(O)ccc(C(=O)/C=C/c2ccc(O)cc2)c1O` [#96, Isobavachalcone], the “lowering of the EC50 of remdesivir” value (HCoV-OC43) was ~ 5 fold, the “direct antiviral effect” value (SARS-CoV-2) was “no direct antiviral effect was detected” and the “synergy with remdesivir, SARS-CoV-2” value (SARS-CoV-2) was “synergized with remdesivir”.
For `O=C(NCc1ccc(F)cc1)C1C(=O)N(O)C(=O)c2cc(C(F)(F)F)ccc21` (stereo not shown) [#79, 7-trifluoromethyl-N-(4-fluorobenzyl)−2-hydroxy-1,3-dioxo-4H-isoquinoline-4-carboxamide], the “lowering of the EC50 of remdesivir” value (HCoV-OC43) was ~ 5 fold, the “direct antiviral effect” value (SARS-CoV-2) was “no direct antiviral effect was detected” and the “synergy with remdesivir, SARS-CoV-2” value (SARS-CoV-2) was “synergized with remdesivir”.

From article PMC8640510 (Cell Death and Differentiation, 2021)
